Source: ChEMBL document CHEMBL5291721, “A preclinical secondary pharmacology resource illuminates target-adverse drug reaction associations of marketed drugs” (Nat Commun, 2023)

Key:
[1] = target: T1, Alpha-2B adrenergic receptor (Homo sapiens, UniProt P18089)
T1 sequence (P18089 whole entry): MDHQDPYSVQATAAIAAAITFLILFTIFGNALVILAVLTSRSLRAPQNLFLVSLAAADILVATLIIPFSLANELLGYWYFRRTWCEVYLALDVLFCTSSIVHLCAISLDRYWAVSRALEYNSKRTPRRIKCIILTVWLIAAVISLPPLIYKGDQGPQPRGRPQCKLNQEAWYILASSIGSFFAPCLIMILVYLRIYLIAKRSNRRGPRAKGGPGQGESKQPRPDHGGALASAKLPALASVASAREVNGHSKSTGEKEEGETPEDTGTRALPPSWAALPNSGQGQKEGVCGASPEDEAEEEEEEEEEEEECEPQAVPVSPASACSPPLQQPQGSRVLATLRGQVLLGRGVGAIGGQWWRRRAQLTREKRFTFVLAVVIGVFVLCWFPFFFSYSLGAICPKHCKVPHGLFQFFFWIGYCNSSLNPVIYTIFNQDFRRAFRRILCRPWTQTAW

Cannabinoid receptor 1 = Cannabinoid receptor 1 (Homo sapiens, UniProt P21554); assay type: functional, cell-based
Histamine H1 receptor = Histamine H1 receptor (Homo sapiens, UniProt P35367)
Acetylcholinesterase = Acetylcholinesterase (Homo sapiens, UniProt P22303); assay type: functional
[2] = target: T2, Alpha-1A adrenergic receptor (Homo sapiens, UniProt P35348); assay type: functional, cell-based
T2 sequence (P35348 whole entry): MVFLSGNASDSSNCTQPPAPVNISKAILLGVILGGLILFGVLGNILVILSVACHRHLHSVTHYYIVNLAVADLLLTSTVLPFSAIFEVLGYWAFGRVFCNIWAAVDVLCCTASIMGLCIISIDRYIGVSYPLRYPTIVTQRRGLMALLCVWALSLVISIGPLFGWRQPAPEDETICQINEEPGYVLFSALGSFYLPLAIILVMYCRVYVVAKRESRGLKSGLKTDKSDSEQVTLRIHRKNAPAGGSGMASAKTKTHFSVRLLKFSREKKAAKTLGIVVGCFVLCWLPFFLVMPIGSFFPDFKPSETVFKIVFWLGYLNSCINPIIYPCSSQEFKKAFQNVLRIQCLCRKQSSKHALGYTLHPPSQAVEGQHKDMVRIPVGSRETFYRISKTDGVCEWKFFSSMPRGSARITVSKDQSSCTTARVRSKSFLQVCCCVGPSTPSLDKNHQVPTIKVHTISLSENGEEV

[3] = target: T3, Alpha-2A adrenergic receptor (Homo sapiens, UniProt P08913)
T3 sequence (P08913 whole entry): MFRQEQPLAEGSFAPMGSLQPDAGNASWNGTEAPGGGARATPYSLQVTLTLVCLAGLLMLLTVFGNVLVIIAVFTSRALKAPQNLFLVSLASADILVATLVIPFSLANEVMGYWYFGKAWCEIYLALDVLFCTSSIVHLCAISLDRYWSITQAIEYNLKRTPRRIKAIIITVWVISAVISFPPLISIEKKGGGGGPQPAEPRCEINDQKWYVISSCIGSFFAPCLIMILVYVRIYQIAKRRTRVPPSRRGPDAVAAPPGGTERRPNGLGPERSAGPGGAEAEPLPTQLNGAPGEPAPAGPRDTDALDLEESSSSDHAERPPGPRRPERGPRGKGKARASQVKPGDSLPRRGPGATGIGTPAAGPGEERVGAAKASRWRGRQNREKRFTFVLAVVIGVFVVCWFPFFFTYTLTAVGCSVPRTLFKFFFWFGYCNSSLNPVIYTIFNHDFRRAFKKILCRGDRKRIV

[4] = target: T4, Muscarinic acetylcholine receptor M2 (Homo sapiens, UniProt P08172)
T4 sequence (P08172 whole entry): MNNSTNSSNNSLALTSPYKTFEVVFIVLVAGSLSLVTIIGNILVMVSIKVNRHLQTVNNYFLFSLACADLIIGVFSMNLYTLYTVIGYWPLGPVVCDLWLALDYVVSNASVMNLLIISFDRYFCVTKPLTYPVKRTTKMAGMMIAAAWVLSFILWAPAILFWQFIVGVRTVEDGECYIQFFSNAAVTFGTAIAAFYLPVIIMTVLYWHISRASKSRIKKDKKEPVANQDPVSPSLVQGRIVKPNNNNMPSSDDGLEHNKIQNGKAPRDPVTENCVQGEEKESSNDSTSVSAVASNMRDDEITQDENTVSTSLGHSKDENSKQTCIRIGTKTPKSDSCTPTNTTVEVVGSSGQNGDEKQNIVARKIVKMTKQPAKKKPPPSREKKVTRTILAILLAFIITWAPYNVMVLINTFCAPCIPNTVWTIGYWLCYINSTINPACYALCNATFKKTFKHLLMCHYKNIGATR

[5] = target: Prostaglandin G/H synthase 1 (Homo sapiens, UniProt P23219); assay type: functional
[6] = target: Sodium-dependent dopamine transporter (Homo sapiens, UniProt Q01959)
Thromboxane A2 receptor [7] = target: T5, Thromboxane A2 receptor (Homo sapiens, UniProt P21731); assay type: functional, cell-based
T5 sequence (P21731 whole entry): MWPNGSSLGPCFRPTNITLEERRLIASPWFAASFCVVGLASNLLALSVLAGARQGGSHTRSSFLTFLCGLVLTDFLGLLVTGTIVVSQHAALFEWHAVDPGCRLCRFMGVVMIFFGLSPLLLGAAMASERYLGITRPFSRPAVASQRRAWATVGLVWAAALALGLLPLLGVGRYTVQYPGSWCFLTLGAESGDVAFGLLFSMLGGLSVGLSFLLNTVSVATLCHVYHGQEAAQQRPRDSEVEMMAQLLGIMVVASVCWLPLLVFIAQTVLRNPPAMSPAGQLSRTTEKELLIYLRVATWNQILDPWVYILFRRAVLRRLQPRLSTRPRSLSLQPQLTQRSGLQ

[8] = target: Gamma-aminobutyric acid receptor subunit alpha-1 (Rattus norvegicus, UniProt P62813)
Thromboxane A2 receptor [9] = target: T5, Thromboxane A2 receptor
Further: assay procedure not described here.

Sequence of Cannabinoid receptor 1 (P21554 whole entry): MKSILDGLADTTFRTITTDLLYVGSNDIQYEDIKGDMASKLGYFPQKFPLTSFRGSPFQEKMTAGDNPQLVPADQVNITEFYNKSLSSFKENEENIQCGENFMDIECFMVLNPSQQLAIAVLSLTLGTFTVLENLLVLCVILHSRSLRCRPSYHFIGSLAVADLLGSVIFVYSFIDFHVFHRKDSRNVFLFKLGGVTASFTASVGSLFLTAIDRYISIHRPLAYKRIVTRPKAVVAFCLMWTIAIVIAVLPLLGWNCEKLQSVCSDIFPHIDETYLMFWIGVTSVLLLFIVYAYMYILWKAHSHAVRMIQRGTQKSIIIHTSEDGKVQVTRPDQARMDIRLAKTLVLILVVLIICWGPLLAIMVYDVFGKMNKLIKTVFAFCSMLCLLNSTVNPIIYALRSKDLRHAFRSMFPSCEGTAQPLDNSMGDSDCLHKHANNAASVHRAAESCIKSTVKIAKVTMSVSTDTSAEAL
Sequence of Acetylcholinesterase (P22303 whole entry): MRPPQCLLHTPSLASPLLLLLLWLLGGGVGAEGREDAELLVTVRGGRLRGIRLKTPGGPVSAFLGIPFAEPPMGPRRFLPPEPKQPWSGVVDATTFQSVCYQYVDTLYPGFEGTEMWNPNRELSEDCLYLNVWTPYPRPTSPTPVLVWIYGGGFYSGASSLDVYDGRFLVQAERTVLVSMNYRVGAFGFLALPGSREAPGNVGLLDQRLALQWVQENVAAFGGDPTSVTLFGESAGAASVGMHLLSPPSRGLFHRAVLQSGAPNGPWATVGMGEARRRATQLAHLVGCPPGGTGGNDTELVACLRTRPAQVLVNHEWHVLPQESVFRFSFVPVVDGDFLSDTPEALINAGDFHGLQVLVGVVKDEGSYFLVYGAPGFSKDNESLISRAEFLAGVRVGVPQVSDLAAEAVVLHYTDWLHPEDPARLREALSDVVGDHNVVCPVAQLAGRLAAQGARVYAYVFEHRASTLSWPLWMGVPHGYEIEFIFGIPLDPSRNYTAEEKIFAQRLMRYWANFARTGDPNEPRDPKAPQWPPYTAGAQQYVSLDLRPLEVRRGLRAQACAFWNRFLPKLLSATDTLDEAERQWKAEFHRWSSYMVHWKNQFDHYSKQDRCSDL
Sequence of Gamma-aminobutyric acid receptor subunit alpha-1 (P62813 whole entry): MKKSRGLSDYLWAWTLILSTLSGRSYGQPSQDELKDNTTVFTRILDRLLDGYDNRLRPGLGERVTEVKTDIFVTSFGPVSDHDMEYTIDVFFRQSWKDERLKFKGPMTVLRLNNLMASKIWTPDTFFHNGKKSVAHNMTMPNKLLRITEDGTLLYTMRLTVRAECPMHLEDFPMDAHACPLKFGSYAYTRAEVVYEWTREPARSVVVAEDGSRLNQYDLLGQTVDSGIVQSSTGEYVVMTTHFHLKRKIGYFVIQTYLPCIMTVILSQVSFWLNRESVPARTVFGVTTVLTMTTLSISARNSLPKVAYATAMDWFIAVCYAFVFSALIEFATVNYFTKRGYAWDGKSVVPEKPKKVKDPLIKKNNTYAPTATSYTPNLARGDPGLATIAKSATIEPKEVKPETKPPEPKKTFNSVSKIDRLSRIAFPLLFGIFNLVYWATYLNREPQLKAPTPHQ
Sequence of Prostaglandin G/H synthase 1 (P23219 whole entry): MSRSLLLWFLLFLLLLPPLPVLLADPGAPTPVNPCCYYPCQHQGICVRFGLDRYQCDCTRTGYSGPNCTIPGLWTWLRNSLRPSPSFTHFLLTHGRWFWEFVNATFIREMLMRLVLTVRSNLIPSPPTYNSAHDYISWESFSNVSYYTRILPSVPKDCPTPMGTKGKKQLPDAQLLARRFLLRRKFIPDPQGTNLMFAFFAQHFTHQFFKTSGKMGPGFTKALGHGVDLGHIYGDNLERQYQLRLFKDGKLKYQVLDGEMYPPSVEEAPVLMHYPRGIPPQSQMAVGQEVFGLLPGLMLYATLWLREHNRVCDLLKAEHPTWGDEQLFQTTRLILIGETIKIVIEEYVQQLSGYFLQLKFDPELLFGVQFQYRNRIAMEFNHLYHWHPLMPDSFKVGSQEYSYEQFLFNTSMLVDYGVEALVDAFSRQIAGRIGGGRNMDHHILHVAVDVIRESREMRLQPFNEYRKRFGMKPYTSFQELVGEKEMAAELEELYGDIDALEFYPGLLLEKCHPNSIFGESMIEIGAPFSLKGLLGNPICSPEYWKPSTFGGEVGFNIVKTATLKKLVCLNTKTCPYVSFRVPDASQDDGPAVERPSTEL
Sequence of Histamine H1 receptor (P35367 whole entry): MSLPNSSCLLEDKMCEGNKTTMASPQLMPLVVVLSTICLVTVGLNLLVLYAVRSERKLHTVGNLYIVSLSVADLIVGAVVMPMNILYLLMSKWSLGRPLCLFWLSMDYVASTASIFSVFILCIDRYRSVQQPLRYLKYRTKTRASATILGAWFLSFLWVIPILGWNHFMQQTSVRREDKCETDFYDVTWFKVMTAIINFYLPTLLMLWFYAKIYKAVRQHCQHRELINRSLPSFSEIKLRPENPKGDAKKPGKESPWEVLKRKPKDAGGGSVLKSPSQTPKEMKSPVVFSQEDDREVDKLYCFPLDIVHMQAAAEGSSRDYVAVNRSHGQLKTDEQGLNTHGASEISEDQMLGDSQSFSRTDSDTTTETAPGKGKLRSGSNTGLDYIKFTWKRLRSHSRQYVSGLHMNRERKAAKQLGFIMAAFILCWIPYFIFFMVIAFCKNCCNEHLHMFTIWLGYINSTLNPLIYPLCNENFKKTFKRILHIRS
Sequence of Sodium-dependent dopamine transporter (Q01959 whole entry): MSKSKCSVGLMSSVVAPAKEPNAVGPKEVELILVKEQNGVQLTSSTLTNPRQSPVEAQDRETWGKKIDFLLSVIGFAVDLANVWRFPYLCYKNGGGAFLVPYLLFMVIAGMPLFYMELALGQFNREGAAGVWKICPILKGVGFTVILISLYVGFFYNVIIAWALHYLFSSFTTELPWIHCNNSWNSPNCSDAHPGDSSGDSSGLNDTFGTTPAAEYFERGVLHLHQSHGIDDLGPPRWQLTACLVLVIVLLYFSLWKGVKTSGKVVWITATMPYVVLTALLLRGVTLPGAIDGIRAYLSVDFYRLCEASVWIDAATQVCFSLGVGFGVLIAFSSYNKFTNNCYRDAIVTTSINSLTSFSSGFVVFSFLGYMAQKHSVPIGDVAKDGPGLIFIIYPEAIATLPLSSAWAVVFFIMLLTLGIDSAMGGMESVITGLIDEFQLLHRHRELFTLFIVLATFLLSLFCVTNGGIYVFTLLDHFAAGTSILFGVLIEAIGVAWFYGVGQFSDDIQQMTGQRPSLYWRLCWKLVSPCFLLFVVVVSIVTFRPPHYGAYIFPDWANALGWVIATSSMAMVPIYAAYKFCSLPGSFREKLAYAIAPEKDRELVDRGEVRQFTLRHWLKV

Compound	AC50 [1]	AC50 (Cannabinoid receptor 1)	AC50 (Histamine H1 receptor)	AC50 (Acetylcholinesterase)	AC50 [2]	AC50 [3]	AC50 [4]	AC50 [5]	AC50 [6]	AC50 (Thromboxane A2 receptor [7])	AC50 [8]	AC50 (Thromboxane A2 receptor [9])
N[C@@H](Cc1cc(I)c(Oc2cc(I)c(O)c(I)c2)c(I)c1)C(=O)O [LEVOTHYROXINE]	> 30 µM	> 30 µM	> 30 µM	–	–	–	–	–	–	–	–	–
CCOCC(O)COc1ccc(NC(=O)CC[S+](C)C)cc1 (stereo unspecified)	> 30 µM	> 30 µM	> 30 µM	–	–	–	–	–	–	–	–	–
O=C(O)[C@H]1/C(=C/CO)O[C@@H]2CC(=O)N21 [CLAVULANIC ACID]	> 30 µM	> 30 µM	> 30 µM	–	–	–	–	–	–	–	–	–
CCC[C@@]1(CCc2ccccc2)CC(O)=C([C@H](CC)c2cccc(NS(=O)(=O)c3ccc(C(F)(F)F)cn3)c2)C(=O)O1	> 30 µM	> 30 µM	> 30 µM	–	–	–	–	–	–	–	–	–
CC(C)(CO)c1cc2cc(NC(=O)C3(c4ccc5c(c4)OC(F)(F)O5)CC3)c(F)cc2n1C[C@@H](O)CO [TEZACAFTOR]	> 30 µM	> 30 µM	> 30 µM	–	–	–	–	–	–	–	–	–
Cc1cc(C)cc(OCC2CNC(=O)O2)c1 (stereo unspecified) [METAXALONE]	–	–	–	> 30 µM	> 30 µM	> 30 µM	> 30 µM	> 30 µM	> 30 µM	> 30 µM	–	–
N#Cc1ccnc(N2C(=O)CC[C@H]2C(=O)N(c2cncc(F)c2)[C@H](C(=O)NC2CC(F)(F)C2)c2ccccc2Cl)c1 [IVOSIDENIB]	–	–	–	> 30 µM	> 30 µM	> 30 µM	> 30 µM	> 30 µM	> 30 µM	> 30 µM	–	–
NC(=O)C1(N2CCCCC2)CCN(CCCC(=O)c2ccc(F)cc2)CC1 [PIPAMPERONE]	–	–	–	> 30 µM	0.398 µM	5.47 µM	> 30 µM	> 30 µM	2.92 µM	> 30 µM	–	–
C[C@H](Cn1cnc2c(N)ncnc21)OCP(=O)(O)O [TENOFOVIR ANHYDROUS]	> 30 µM	–	> 30 µM	–	–	–	–	–	–	–	> 30 µM	> 30 µM
Cc1c(C)c2c(c(C)c1O)CCC(C)(COc1ccc(CC3SC(=O)NC3=O)cc1)O2 (stereo unspecified) [TROGLITAZONE]	–	> 30 µM	–	> 30 µM	3.96 µM	10.3 µM	17.8 µM	5.93 µM	8.75 µM	17.6 µM	> 30 µM	> 30 µM
C[C@]12CC[C@@H]3c4ccc(OC(=O)N(CCCl)CCCl)cc4CC[C@H]3[C@@H]1CC[C@@H]2OP(=O)(O)O [ESTRAMUSTINE PHOSPHATE]	–	–	–	> 30 µM	> 30 µM	> 30 µM	> 30 µM	> 30 µM	> 30 µM	> 30 µM	–	–
CCOC(=O)[C@H](CCc1ccccc1)N[C@@H](C)C(=O)N1Cc2ccccc2C[C@H]1C(=O)O	–	> 30 µM	–	> 30 µM	> 30 µM	> 30 µM	> 30 µM	> 30 µM	> 30 µM	> 30 µM	> 10 µM	> 30 µM
CC(C)C[C@H](NC(=O)[C@H](Cc1ccccc1)NC(=O)c1cnccn1)B(O)O [BORTEZOMIB]	> 30 µM	–	> 30 µM	–	–	–	–	–	–	–	> 30 µM	> 30 µM
CC1=C(C/C=C(\C)CCC[C@H](C)CCC[C@H](C)CCCC(C)C)C(=O)c2ccccc2C1=O [PHYTONADIONE]	–	–	–	> 30 µM	> 30 µM	> 30 µM	> 30 µM	> 30 µM	> 30 µM	> 30 µM	–	–
CCCCCCO[C@@H](C)c1cccc(-c2csc(NC(=O)c3cc(Cl)c(/C=C(\C)C(=O)O)c(Cl)c3)n2)c1OC [LUSUTROMBOPAG]	–	–	–	> 30 µM	13.5 µM	> 30 µM	> 30 µM	2.15 µM	> 10 µM	> 30 µM	–	–
CC(C)Nc1cccnc1N1CCN(C(=O)c2cc3cc(NS(C)(=O)=O)ccc3[nH]2)CC1 [DELAVIRDINE]	–	–	–	> 30 µM	> 30 µM	13.4 µM	> 30 µM	> 30 µM	> 30 µM	> 30 µM	–	–
Cc1cccc(C)c1NC(=O)c1cc(S(N)(=O)=O)c(Cl)cc1O [XIPAMIDE]	–	–	–	> 30 µM	> 30 µM	> 30 µM	> 30 µM	> 30 µM	> 30 µM	> 30 µM	–	–
CCCCCCCC/C=C\CCCCCCCC(=O)O [OLEIC ACID]	–	–	–	> 30 µM	> 30 µM	> 30 µM	> 30 µM	6.68 µM	> 30 µM	> 30 µM	–	–
O=c1[nH]c2ccccc2n1CCN1CCN(c2cccc(C(F)(F)F)c2)CC1 [FLIBANSERIN]	–	–	–	> 30 µM	0.391 µM	10.3 µM	> 30 µM	> 30 µM	> 30 µM	> 30 µM	–	–
NCC1(CC(=O)O)CCCCC1 [GABAPENTIN]	–	> 30 µM	–	> 30 µM	> 30 µM	> 30 µM	> 30 µM	> 30 µM	> 30 µM	> 30 µM	> 10 µM	> 30 µM
CNC1(C)C2CCC(C2)C1(C)C (stereo unspecified) [MECAMYLAMINE]	> 10 µM	–	> 10 µM	–	–	–	–	–	–	–	–	> 10 µM
CCOc1ccccc1OCCN[C@H](C)Cc1ccc(OC)c(S(N)(=O)=O)c1 [TAMSULOSIN]	1.9 µM	–	> 10 µM	–	–	–	–	–	–	–	> 10 µM	> 30 µM
CC(C)(Oc1ccc(Cl)cc1)C(=O)NC(=O)NCN1CCOCC1 [PLAFIBRIDE]	–	–	–	> 30 µM	> 30 µM	> 30 µM	> 30 µM	> 30 µM	> 30 µM	> 30 µM	–	–
C=CCOc1ccc(CC(=O)O)cc1Cl [ALCLOFENAC]	–	–	–	> 30 µM	> 30 µM	> 30 µM	> 30 µM	> 30 µM	> 30 µM	> 30 µM	–	–
CO[C@@]1(NC(=O)C(C(=O)O)c2ccc(O)cc2)C(=O)N2C(C(=O)O)=C(CSc3nnnn3C)CO[C@@H]21 (stereo partly specified) [MOXALACTAM]	–	–	–	> 30 µM	> 30 µM	> 30 µM	> 30 µM	9.25 µM	> 30 µM	> 30 µM	–	–
